Data taken from ChEMBL document CHEMBL4316584, “All that glitters is not gold: Panning cytotoxic natural products and derivatives with a fused tricyclic backbone by the estimation of their leadlikeness for cancer treatment” (Eur J Med Chem, 2019).

Legend:
Format in all cases: functional, cell-based
[1] = system: HeLa; experiment: Cytotoxicity against human HeLa cells by MTT assay
[2] = system: BGC-823; experiment: Cytotoxicity against human BGC823 cells after 48 hrs by MTT assay; conditions: BGC-823, 48 h
[3] = system: MDA-MB-231; experiment: Cytotoxicity against human MDA-MB-231 cells after 48 hrs by MTT assay; conditions: MDA-MB-231, 48 h
[4] = system: K562; experiment: Cytotoxicity against human K562 cells after 48 hrs by MTT assay; conditions: K562, 48 h
[5] = system: HepG2; experiment: Cytotoxicity against human HepG2 cells after 48 hrs by MTT assay; conditions: HepG2, 48 h
[6] = system: HL-60; experiment: Cytotoxicity against human HL60 cells after 48 hrs by MTS assay; conditions: HL-60, 48 h
[7] = system: HepG2; experiment: Cytotoxicity against human HepG2 cells after 44 hrs by MTT assay; conditions: HepG2, 44 h
[8] = system: KB; experiment: Cytotoxicity against human KB cells after 48 hrs by MTT assay
[9] = system: HT-29; experiment: Cytotoxicity against human HT-29 cells after 48 hrs by MTS assay; conditions: HT-29, 48 h
[10] = system: HL-60; experiment: Cytotoxicity against human HL60 cells after 48 hrs by MTT assay; conditions: HL-60, 48 h
[11] = system: A549; experiment: Cytotoxicity against human A549 cells after 48 hrs by MTS assay; conditions: A549, 48 h
[12] = system: HepG2; experiment: Cytotoxicity against human HepG2 cells by MTT assay
[13] = system: Bel-7402; experiment: Cytotoxicity against human Bel7402 cells by MTT assay
[14] = system: MCF7; experiment: Cytotoxicity against human MCF7 cells after 48 hrs by MTS assay; conditions: MCF7, 48 h
[15] = system: MCF7; experiment: Cytotoxicity against human MCF7 cells after 48 hrs by MTT assay; conditions: MCF7, 48 h
[16] = system: K562; experiment: Cytotoxicity against human K562 cells after 48 to 72 hrs by MTT assay
[17] = system: Bel-7402; experiment: Cytotoxicity against human Bel7402 cells after 48 hrs by MTT assay; conditions: Bel-7402, 48 h
[18] = system: Bel-7402; experiment: Cytotoxicity against human Bel7402 cells after 44 hrs by MTT assay; conditions: Bel-7402, 44 h
[19] = system: HL-60; experiment: Cytotoxicity against human HL60 cells after 48 to 72 hrs by MTT assay
[20] = system: HepG2; experiment: Cytotoxicity against human HepG2 cells after 48 hrs by BrDU-incorporation based ELISA; conditions: HepG2, 48 h
[21] = system: MCF7; experiment: Cytotoxicity against human MCF7 cells after 24 hrs by MTT assay; conditions: MCF7, 24 h

CCn1c2cc(OC)ccc2c2ccnc(C)c21
IC50 [1]: 17 µM

CC(C)=CCc1c(O)cc2oc3cc(O)ccc3c(=O)c2c1O
IC50 [2]: 12.1 µM

O=c1c2ccc(O)c(O)c2oc2cccc(O)c12
IC50 [2]: 10.1 µM

N#CC1=C(N)Oc2c(ccc3ccccc23)C1c1cccc([N+](=O)[O-])c1 (configuration not stated)
IC50 [3]: 18.1 µM

CC(C)c1cc2c(cc1O)[C@@]1(C)CCCC(C)(C)[C@@H]1C(=O)C2
IC50 [4]: 15.9 µM

CCOC(=O)c1cc2c3ccccc3n(Cc3ccccc3)c2cn1
IC50 [1]: 13 µM

O=c1c2ccc(O)cc2oc2cc(O)ccc12
IC50 [2]: 12.9 µM

Cc1cc(O)c2c(c1)C(=O)c1cc(O)c(CN3CCCCC3)c(O)c1C2=O
IC50 [3]: 12.3 µM

CCCCCCOc1cccc2c1C(=O)c1c(OCCCCCC)cc(Cn3cc(C)c(=O)[nH]c3=O)cc1C2=O
IC50 [5]: 4.2 µM

c1ccc2c(c1)ncn2CCCn1c2ccccc2c2ccccc21
IC50 [6]: 7.91 µM

Cc1cc2ncn(CCCCCn3c4ccccc4c4ccccc43)c2cc1C
IC50 [6]: 14.7 µM

N#CC1=C(N)Oc2ccc3ccccc3c2C1c1ccc(Br)cc1 (configuration not stated)
IC50 [3]: 6.1 µM

CCCNC1=CC(=O)c2c(O)c3c(c(O)c2C1=O)C[C@](C)(O)[C@H](O)C3
IC50 [5]: 9.98 µM

O=C(O)c1cc(O)c2c(c1)C(=O)c1c(O)cccc1C2=O
IC50 [7]: 16.3 µM

Cc1ccc(C2C3=C(CC(C)(C)CC3=O)N(c3ccc(Cl)cc3)C3=C2C(=O)CC(C)(C)C3)cc1
IC50 [5]: 9.34 µM

CC(=O)Oc1cc(OC(C)=O)c2c(c1)C(=O)c1cc(C(=O)O)cc(OC(C)=O)c1C2=O
IC50 [3]: 8.1 µM

N#CC1=C(N)Oc2c(ccc3ccccc23)C1c1ccc(Cl)cc1 (configuration not stated)
IC50 [8]: 14.7 µM

Clc1ccc(-c2nc(Cn3cc(COc4ccc(Br)cc4)nn3)cc3c2[nH]c2ccccc23)cc1
IC50 [9]: 15.6 µM

C[C@]1(O)Cc2c(O)c3c(c(O)c2C[C@H]1O)C(=O)C=C(NCc1ccccc1)C3=O
IC50 [5]: 13.4 µM

c1ccc2c(c1)c1ccccc1n2CCCCCn1ccnc1
IC50 [6]: 14.4 µM

CCOC(=O)C(C)(C)Oc1cc(O)c2c(c1)C(=O)c1cc(C)cc(O)c1C2=O
IC50 [3]: 7.72 µM

CN(C)CCNC1=CC(=O)c2c(O)c3c(c(O)c2C1=O)C[C@](C)(O)[C@H](O)C3
IC50 [5]: 2.26 µM

CCn1c2c(c3ccccc31)CCC(CN1CCOCC1)C2=O (configuration not stated)
IC50 [4]: 13.8 µM

N#CC1=C(N)Oc2c(ccc3ccccc23)C1c1ccc([N+](=O)[O-])cc1 (configuration not stated)
IC50 [8]: 20 µM

CC(CO)c1cc2c(cc1O)[C@@]1(C)CCCC(C)(C)[C@@H]1CC2 (some centres not stated)
IC50 [10]: 16.2 µM

Cc1cc2ncn(CCCCn3c4ccccc4c4ccccc43)c2cc1C
IC50 [11]: 19.4 µM

C=CCn1c2c(c3ccccc31)CCC(CN(C)C)C2=O (configuration not stated)
IC50 [4]: 3.29 µM

COc1ccc(-c2nc(Cn3cc(CN4C(=O)c5cccc6cccc(c56)C4=O)nn3)cc3c2[nH]c2ccccc23)cc1OC
IC50 [9]: 7.46 µM

CCn1c2ccccc2c2cc(C(=O)OC)ncc21
IC50 [1]: 17 µM

CN(C)CC1CCc2c(n(C)c3ccccc23)C1=O (configuration not stated)
IC50 [4]: 17.3 µM

COc1ccc2c3ccnc(C)c3n(C)c2c1
IC50 [12]: 16 µM

CC(C)c1cc2c(cc1O)[C@@]1(C)C[C@H](O)CC(C)(C)[C@@H]1CC2
IC50 [10]: 17 µM

COC1=CC(=O)C[C@@]2(OC)Oc3ccccc3C[C@@]12O
IC50 [10]: 4.08 µM

COc1cc2oc3cc(O)c(CC=C(C)C)c(O)c3c(=O)c2c(CC=C(C)C)c1OC
IC50 [8]: 12.8 µM

C#CCNC1=CC(=O)c2c(O)c3c(c(O)c2C1=O)C[C@](C)(O)[C@H](O)C3
IC50 [5]: 10.9 µM

CC(C)=CCC/C(C)=C/Cc1c(O)ccc2oc3cc(O)cc(O)c3c(=O)c12
IC50 [8]: 14.5 µM

COc1ccc(CNC2=CC(=O)c3c(O)c4c(c(O)c3C2=O)C[C@](C)(O)[C@H](O)C4)cc1
IC50 [5]: 10.1 µM

c1ccc2c(c1)ncn2CCCCCn1c2ccccc2c2ccccc21
IC50 [6]: 14.1 µM

O=C1c2cccc(O)c2C(=O)c2c(O)cc(Cn3ccc(=O)[nH]c3=O)cc21
IC50 [5]: 3.9 µM

COC1=CC(=O)C[C@@]2(OC)Oc3ccc(O)cc3C[C@@]12O
IC50 [10]: 10.6 µM

Cc1cc(O)c2c(c1)C(=O)c1cc(O)c(CN3CCN(C)CC3)c(O)c1C2=O
IC50 [3]: 10.4 µM

COc1cc(Cn2c3ccc(NC(=O)CCN(C)C)cc3c(=O)c3cc(NC(=O)CCN(C)C)ccc32)cc(OC)c1
IC50 [4]: 4.7 µM

CCOC(=O)c1cc2c3ccccc3n(Cc3c(F)c(F)c(F)c(F)c3F)c2cn1
IC50 [13]: 9 µM

Cc1cc(O)c2c(c1)C(=O)c1cc(OCCN3CCOCC3)cc(O)c1C2=O
IC50 [3]: 4.24 µM

c1ccc2c(c1)ncn2CCCCn1c2ccccc2c2ccccc21
IC50 [14]: 5.06 µM

COc1cc(-c2nc(Cn3cc(CN4C(=O)c5ccccc5C4=O)nn3)cc3c2[nH]c2ccccc23)cc(OC)c1OC
IC50 [9]: 5.79 µM

COCCOCSc1nnc(-c2cccnc2)n1/N=C/c1c2ccccc2cc2ccccc12
IC50 [4]: 0.09 µM

COc1cc2oc3cc(O)c(OC)c(CC=C(C)C)c3c(=O)c2c(O)c1C/C=C(/C)CO
IC50 [8]: 15.5 µM

N#CC1=C(N)Oc2ccc3ccccc3c2C1c1ccc(Cl)cc1 (configuration not stated)
IC50 [8]: 11.7 µM

COc1cc(O)c2c(c1O)C(=O)C1=C(C[C@@H](O)[C@@](C)(O)C1)C2=O
IC50 [15]: 2690 nM
IC50 [5]: 9.99 µM

COC1=CC(=O)c2c(ccc3cc(O)ccc23)C1=O
IC50 [16]: 13.8 µM

COc1c(O)cc2oc3cc(O)c(C/C=C(/C)CO)c(O)c3c(=O)c2c1C/C=C(\C)CCC=C(C)C [COWANOL]
IC50 [8]: 12 µM

CC(=O)Oc1cc(OC(C)=O)c2c(c1)C(=O)c1cc(C)cc(OC(C)=O)c1C2=O [EMODIN TRIACETATE]
IC50 [3]: 2.14 µM

CC(C)=CCc1c(O)c(CC=C(C)C)c2oc3c(O)ccc(O)c3c(=O)c2c1O [GARTANIN]
IC50 [17]: 7.78 µM

COc1c(O)cc2oc3cc(O)c(CC=C(C)C)c(O)c3c(=O)c2c1CC=C(C)C [MANGOSTIN]
IC50 [8]: 14.1 µM

Cc1cc(=O)[nH]c2c1C(=O)c1ccccc1C2=O [MARCANIN A]
IC50 [18]: 9.54 µM

COc1cc(O)cc2ccc3cccc(O)c3c12 [MOSCATIN]
IC50 [19]: 19.2 µM

CC(C)=CCC/C(C)=C/Cc1c(O)c(O)cc2oc3cc(O)c(CC=C(C)C)c(O)c3c(=O)c12 [NORCOWANIN]
IC50 [8]: 10.4 µM

c1ccc2nc3ccccc3nc2c1 [PHENAZINE]
IC50 [20]: 7.8 µM

CCN(CC)CCCC(C)Nc1c2ccc(Cl)cc2nc2ccc(OC)cc12 (configuration not stated) [QUINACRINE]
IC50 [21]: 7.5 µM

CC(C)c1cc2c(cc1O)[C@@]1(C)CCCC(C)(C)[C@@H]1CC2=O [SUGIOL]
IC50 [4]: 6.7 µM
